# ChEMBL document CHEMBL1142594, “Antioxidative constituents of Etlingera elatior” (J Nat Prod, 2005)
# Experiment: Antioxidant activity assessed as inhibition of lipid peroxidation at 300 uM by ferric thiocyanate method
# Type: functional
row,SMILES,inhibition [%]
1,O=C(/C=C/C=C/c1ccc(O)cc1)/C=C/c1ccc(O)cc1,92.1
2,Cc1c(C)c2c(c(C)c1O)CC[C@@](C)(CCC[C@H](C)CCC[C@H](C)CCCC(C)C)O2,69.5
3,O=C(/C=C/C=C/C=C/c1ccc(O)cc1)c1ccc(O)cc1,93.7
4,COc1cc(/C=C/C(O)=C/C(=O)/C=C/c2ccc(O)cc2)ccc1O,92.5
